Source: paper PMC12196264, “Design and Synthesis of Pyridine-Based Pyrrolo[2,3-d]pyrimidine Analogs as CSF1R Inhibitors: Molecular Hybridization and Scaffold Hopping Approach” (Pharmaceuticals, 2025)
pKd: −log10 of the molar value.

Experiments:
cKIT = cKIT (Homo sapiens, UniProt P10721); experiment: KIT-WT LanthaScreen binding assay (Kd); conditions: single eight-point titrations, TR-FRET LanthaScreen Binding Assay; R^2 of fit in parentheses; read-out: Enzymatic Assay KIT (Kd)
Procedure: The TR-FRET-based LanthaScreen Binding Assay was performed to determine Kd values of synthesized derivatives against cKIT.
Subsequently, 8 µL of kinase anti-GST antibody mixture was added, followed by incubation at 4 °C for 30 min in a pre-cooled, humidified box to minimize edge effects. The reaction was initiated by adding 5 µL of tracer working solution and mixed on a Bioshake 5000 microplate shaker (Q Instruments, Jena, Germany). […] Kd values were calculated from sigmoidal dose-response curves using Scigilian Analyze software version 5.8.5.15 (Scigilian, Montreal, QC, Canada).

ABL1 = ABL1 (Homo sapiens, UniProt P00519); experiment: Kinase panel; assay type: biochemical
Procedure: (§1) Ta b l e S 1. Inhibition (%) by compound 14c towards di7erent kinases. Values are average of two
(§2) measurements at 1000 nM test concentration. The ATP concentration was equal to KM.
(§3) Kinase ATP conc. % inhibition

AXL = AXL (Homo sapiens, UniProt P30530); experiment: Kinase panel; assay type: biochemical
Procedure: as §1, §2, §3

Aurora A = Aurora A (Homo sapiens, UniProt O14965); experiment: Kinase panel; assay type: biochemical
Procedure: as §1, §2, §3

Aurora B = Aurora B (Homo sapiens, UniProt Q96GD4); experiment: Kinase panel; assay type: biochemical
Procedure: as §1, §2, §3

CAMK1D = CAMK1D (Homo sapiens, UniProt Q8IU85); experiment: Kinase panel; assay type: biochemical
Procedure: as §1, §2, §3

CDK1 = CDK1 (Homo sapiens, UniProt P06493); experiment: Kinase panel; assay type: biochemical
Procedure: as §1, §2, §3

CHEK1 = CHEK1 (Homo sapiens, UniProt O14757); experiment: Kinase panel; assay type: biochemical
Procedure: as §1, §2, §3

CSF1R = CSF1R (Homo sapiens, UniProt P07333); experiment: Kinase panel; assay type: biochemical
Procedure: as §1, §2, §3

EPHA2 = EPHA2 (Homo sapiens, UniProt P29317); experiment: Kinase panel; assay type: biochemical
Procedure: as §1, §2, §3

FER = FER (Homo sapiens, UniProt P16591); experiment: Kinase panel; assay type: biochemical
Procedure: as §1, §2, §3

FRAP1 = FRAP1 (Homo sapiens, UniProt P42345); experiment: Kinase panel; assay type: biochemical
Procedure: as §1, §2, §3

FYN = FYN (Homo sapiens, UniProt P06241); experiment: Kinase panel; assay type: biochemical
Procedure: as §1, §2, §3

JAK2 = JAK2 (Homo sapiens, UniProt O60674); experiment: Kinase panel; assay type: biochemical
Procedure: as §1, §2, §3

LTK = LTK (Homo sapiens, UniProt P29376); experiment: Kinase panel; assay type: biochemical
Procedure: as §1, §2, §3

LYN B = LYN B (Homo sapiens, UniProt P07948); experiment: Kinase panel; assay type: biochemical
Procedure: as §1, §2, §3

MET = MET (Homo sapiens, UniProt P08581); experiment: Kinase panel; assay type: biochemical
Procedure: as §1, §2, §3

MINK1 = MINK1 (Homo sapiens, UniProt Q8N4C8); experiment: Kinase panel; assay type: biochemical
Procedure: as §1, §2, §3

NEK1 = NEK1 (Homo sapiens, UniProt Q96PY6); experiment: Kinase panel; assay type: biochemical
Procedure: as §1, §2, §3

PDGFRB = PDGFRB (Homo sapiens, UniProt P09619); experiment: Kinase panel; assay type: biochemical; conditions: 1000 nM test concentration, ATP Km app, average of two measurements
Procedure: as §1, §2, §3

PLK1 = PLK1 (Homo sapiens, UniProt P53350); experiment: Kinase panel; assay type: biochemical
Procedure: as §1, §2, §3

RET = RET (Homo sapiens, UniProt P07949); experiment: Kinase panel; assay type: biochemical
Procedure: as §1, §2, §3

TEK = TEK (Homo sapiens, UniProt Q02763); experiment: Kinase panel; assay type: biochemical
Procedure: as §1, §2, §3

YES1 = YES1 (Homo sapiens, UniProt P07947); experiment: Kinase panel; assay type: biochemical
Procedure: as §1, §2, §3

Chain of PDGFRB (P09619 33-1106, species assumed): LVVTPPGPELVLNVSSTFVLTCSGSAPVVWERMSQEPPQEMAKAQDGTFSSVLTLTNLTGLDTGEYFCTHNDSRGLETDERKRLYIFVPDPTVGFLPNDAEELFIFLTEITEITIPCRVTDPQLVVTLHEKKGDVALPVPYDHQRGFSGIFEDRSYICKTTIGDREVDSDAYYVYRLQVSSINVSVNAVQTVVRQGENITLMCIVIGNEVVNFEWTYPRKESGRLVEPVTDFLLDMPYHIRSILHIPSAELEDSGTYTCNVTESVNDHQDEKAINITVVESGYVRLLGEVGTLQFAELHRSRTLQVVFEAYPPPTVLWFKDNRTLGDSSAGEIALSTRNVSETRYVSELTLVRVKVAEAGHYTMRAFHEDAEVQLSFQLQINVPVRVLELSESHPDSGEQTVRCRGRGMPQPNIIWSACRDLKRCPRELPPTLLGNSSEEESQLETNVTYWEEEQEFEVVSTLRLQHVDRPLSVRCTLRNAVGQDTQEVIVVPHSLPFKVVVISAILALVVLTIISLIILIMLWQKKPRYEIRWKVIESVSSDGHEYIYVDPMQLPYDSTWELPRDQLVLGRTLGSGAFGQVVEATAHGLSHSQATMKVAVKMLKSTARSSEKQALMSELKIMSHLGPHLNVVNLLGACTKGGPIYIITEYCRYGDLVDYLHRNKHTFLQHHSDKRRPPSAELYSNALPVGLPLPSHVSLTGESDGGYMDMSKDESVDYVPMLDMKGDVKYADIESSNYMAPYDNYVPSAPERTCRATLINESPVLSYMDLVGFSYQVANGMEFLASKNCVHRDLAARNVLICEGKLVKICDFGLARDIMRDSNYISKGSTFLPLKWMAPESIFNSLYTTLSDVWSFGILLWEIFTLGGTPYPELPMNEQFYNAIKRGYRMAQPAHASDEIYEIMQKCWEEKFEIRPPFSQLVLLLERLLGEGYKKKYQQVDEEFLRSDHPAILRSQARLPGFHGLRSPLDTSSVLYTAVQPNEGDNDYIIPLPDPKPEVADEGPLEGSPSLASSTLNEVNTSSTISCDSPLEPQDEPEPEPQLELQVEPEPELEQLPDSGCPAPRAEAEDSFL
Chain of LYN B (P07948 1-491 isoform P07948-2, species assumed): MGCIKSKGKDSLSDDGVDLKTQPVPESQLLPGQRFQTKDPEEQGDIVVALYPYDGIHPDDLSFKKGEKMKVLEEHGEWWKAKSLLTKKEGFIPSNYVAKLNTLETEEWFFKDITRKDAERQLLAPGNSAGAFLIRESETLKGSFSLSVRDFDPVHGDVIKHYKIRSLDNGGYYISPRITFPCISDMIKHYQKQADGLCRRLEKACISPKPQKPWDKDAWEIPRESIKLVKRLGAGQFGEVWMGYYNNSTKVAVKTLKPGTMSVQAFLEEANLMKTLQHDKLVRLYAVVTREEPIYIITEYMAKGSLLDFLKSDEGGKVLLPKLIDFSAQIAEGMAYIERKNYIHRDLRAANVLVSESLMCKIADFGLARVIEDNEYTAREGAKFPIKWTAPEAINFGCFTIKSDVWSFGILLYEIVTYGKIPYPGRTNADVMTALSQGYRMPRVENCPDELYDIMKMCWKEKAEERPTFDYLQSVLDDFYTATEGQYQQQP
Chain of MET (P08581 25-1390): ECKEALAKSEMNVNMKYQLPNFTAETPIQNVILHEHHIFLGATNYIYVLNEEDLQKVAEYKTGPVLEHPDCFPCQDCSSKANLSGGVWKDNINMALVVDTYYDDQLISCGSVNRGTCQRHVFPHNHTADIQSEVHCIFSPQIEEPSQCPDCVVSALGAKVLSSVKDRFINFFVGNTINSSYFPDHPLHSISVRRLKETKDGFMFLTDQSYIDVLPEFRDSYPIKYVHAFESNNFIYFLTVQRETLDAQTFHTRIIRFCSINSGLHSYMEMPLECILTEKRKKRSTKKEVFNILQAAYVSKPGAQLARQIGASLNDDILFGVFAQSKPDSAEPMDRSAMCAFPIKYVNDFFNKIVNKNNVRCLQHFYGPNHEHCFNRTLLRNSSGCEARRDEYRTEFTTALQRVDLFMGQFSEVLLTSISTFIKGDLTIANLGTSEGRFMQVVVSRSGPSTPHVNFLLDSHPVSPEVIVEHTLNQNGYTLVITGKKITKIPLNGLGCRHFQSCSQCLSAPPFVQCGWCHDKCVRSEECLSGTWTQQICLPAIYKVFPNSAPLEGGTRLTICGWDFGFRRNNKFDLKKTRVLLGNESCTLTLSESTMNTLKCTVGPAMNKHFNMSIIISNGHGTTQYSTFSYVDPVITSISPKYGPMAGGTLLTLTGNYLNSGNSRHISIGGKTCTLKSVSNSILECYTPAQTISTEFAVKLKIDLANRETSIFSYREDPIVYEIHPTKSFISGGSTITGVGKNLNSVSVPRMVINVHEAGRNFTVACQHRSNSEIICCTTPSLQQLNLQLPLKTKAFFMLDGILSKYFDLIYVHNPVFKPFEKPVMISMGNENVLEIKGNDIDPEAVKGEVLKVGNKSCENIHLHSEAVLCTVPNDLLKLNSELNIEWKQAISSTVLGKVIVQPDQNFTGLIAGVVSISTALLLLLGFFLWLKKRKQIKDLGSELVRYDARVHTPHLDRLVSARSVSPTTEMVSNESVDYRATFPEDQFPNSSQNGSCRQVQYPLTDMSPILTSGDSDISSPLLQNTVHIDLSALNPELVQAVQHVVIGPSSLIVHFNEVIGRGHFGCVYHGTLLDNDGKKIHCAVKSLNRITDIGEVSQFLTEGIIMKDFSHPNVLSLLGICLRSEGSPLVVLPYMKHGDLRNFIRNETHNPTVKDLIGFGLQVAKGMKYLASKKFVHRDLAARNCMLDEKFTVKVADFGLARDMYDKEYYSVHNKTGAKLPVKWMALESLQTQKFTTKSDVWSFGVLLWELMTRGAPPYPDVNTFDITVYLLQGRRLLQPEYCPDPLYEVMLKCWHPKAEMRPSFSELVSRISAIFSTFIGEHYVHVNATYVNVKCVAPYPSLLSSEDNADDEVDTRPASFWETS
Chain of YES1 (P07947 whole entry, species assumed): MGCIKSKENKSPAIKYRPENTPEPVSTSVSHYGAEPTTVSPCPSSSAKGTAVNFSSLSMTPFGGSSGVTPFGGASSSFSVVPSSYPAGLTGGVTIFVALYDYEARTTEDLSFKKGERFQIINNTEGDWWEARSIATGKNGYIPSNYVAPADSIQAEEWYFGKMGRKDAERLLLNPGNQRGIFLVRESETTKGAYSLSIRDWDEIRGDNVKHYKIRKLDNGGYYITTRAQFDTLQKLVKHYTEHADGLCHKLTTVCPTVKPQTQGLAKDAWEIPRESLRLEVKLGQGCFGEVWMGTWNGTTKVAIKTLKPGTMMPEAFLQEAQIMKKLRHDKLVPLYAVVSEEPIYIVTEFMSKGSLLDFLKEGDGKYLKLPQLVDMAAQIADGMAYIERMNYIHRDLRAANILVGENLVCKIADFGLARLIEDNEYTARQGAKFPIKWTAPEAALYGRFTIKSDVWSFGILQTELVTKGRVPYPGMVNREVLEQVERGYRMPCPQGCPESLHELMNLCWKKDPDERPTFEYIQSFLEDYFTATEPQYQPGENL
Chain of LTK (P29376 17-864, species assumed): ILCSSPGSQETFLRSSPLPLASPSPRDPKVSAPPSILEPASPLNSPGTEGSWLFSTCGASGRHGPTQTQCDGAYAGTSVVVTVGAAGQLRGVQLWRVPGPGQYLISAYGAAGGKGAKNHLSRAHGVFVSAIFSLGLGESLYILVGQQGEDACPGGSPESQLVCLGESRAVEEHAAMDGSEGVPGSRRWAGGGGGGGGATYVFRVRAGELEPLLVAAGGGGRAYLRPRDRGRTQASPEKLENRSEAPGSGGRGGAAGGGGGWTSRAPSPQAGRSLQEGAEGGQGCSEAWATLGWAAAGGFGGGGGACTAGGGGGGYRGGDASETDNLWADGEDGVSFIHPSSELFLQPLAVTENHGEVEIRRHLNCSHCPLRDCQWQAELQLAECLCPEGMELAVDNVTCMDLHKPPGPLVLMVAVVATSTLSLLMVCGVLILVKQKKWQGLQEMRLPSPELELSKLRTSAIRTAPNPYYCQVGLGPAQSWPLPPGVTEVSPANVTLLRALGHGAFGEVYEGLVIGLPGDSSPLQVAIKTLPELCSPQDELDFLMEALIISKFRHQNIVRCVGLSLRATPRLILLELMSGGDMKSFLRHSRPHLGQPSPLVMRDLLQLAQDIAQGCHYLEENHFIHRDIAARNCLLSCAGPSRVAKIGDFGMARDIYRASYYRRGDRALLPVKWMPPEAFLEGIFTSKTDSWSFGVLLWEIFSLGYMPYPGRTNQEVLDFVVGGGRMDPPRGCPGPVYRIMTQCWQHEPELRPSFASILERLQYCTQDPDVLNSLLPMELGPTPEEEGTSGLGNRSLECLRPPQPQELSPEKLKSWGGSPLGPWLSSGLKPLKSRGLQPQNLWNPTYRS
Chain of CAMK1D (Q8IU85 whole entry, species assumed): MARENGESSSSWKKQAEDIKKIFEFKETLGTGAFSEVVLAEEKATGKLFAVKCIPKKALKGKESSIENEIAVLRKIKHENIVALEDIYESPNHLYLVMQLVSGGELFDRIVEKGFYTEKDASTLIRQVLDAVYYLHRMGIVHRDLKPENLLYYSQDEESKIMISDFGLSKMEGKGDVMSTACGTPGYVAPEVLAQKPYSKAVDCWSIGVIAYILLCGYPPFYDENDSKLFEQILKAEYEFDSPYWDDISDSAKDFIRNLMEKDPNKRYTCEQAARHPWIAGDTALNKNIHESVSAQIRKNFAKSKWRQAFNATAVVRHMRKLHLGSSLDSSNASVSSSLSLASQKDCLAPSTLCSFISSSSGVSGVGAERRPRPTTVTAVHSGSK
Chain of Aurora B (Q96GD4 whole entry): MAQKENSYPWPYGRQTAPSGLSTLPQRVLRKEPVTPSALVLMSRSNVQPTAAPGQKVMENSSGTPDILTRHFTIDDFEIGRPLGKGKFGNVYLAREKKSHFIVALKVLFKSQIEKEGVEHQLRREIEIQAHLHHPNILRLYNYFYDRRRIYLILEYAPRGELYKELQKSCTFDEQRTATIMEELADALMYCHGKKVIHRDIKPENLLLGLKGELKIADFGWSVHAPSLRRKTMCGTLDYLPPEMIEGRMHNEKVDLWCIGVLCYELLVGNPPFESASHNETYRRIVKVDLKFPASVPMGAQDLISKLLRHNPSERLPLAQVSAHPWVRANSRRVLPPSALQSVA

pKd (cKIT): < 6.00 | inhibition at 1 µM (ABL1): 71% | inhibition at 1 µM (AXL): 4% | inhibition at 1 µM (Aurora A): 7% | inhibition at 1 µM (Aurora B): 34% | inhibition at 1 µM (CAMK1D): 8% | inhibition at 1 µM (CDK1): 12% | inhibition at 1 µM (CHEK1): 11% | inhibition at 1 µM (CSF1R): 95% | inhibition at 1 µM (EPHA2): 23% | inhibition at 1 µM (FER): 6% | inhibition at 1 µM (FRAP1): -5% | inhibition at 1 µM (FYN): 16% | inhibition at 1 µM (JAK2): 4% | inhibition at 1 µM (LTK): 15% | inhibition at 1 µM (LYN B): 26% | inhibition at 1 µM (MET): 10% | inhibition at 1 µM (MINK1): 69% | inhibition at 1 µM (NEK1): 16% | inhibition at 1 µM (PDGFRB): 9% | % inhibition PDGFRB (PDGFRB; 1 µM): 8% | inhibition at 1 µM (PLK1): 7% | inhibition at 1 µM (RET): 14% | inhibition at 1 µM (TEK): 8% | inhibition at 1 µM (YES1): 65%
Compound: Cc1cccc(CN(C)c2ncnc3[nH]c(-c4ccc(NCc5ccc(C(F)(F)F)nc5)nc4)cc23)c1 [Compound 14c, N-Methyl-N-(3-methylbenzyl)-6-(6-(((6-(trifluoromethyl)pyridin-3-yl)methyl)amino)pyridin-3-yl)-7H-pyrrolo[2,3-d]pyrimidin-4-amine]
